Measured values: publication PMC11173382, “In Vitro Investigations into the Potential Drug Interactions of Pseudoginsenoside DQ Mediated by Cytochrome P450 and Human Drug Transporters” (Molecules, 2024)

Molecular target: T1, hOATP1B3 (Homo sapiens, UniProt Q9NPD5)
T1 sequence (Q9NPD5 1-702): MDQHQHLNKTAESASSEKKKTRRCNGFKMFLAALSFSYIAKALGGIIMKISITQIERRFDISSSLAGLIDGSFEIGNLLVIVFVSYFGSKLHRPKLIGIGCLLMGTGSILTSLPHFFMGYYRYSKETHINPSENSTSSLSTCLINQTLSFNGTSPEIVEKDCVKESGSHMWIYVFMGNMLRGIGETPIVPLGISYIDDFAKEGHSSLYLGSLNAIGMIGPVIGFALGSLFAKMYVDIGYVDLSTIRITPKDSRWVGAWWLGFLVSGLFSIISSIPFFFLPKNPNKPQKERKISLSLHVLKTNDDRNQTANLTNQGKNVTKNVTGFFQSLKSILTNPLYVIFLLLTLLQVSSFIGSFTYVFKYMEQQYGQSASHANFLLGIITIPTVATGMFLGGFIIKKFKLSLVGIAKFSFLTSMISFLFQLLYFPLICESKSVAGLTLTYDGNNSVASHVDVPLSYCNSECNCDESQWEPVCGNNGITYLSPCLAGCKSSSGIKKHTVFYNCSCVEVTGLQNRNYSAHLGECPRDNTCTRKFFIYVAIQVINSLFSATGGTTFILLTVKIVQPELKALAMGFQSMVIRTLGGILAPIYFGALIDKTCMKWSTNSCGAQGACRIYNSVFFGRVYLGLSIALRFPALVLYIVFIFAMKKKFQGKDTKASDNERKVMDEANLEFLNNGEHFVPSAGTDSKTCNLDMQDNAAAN
Experiment: Substrates uptake assay, HEK293A-OATP1B3 cells (3H-EG)
Format: in vitro ADME
Source text: Drug transporters mediate the cellular uptake and efflux of their substrates. Therefore, cell lines overexpressing a drug transporter can be utilized to investigate inhibitors of the transporter by assessing changes in substrate uptake. For each drug transporter, we selected a well-characterized inhibitor as the positive control. Radiolabeled substrates were used to indicate the decrease in transport efficiency when the drug transporters were inhibited by PDQ or the control inhibitors.
The concentrations of the control drugs and the substrates were stated in the assay details. Working solutions of the control inhibitors, the radiolabeled substrates, and each dose of PDQ were prepared at 200 times (200×) more concentrated solutions with DMSO for further dilution.
Transporter-overexpressed cell lines. Human organic anion transporter-overexpressed cell lines MDCKII-OAT1 and S2-OAT3, human organic anion transport polypeptide-overexpressed cell lines HEK293A-OATP1B1 and HEK293A-OATP1B3, human organic cation transporter 2-overexpressed cell line S2-OCT2, and human multi-drug resistance protein MDR1 (or P-gp)-overexpressed cell line MDCKII-MDR1 were gifts from Japan Fuji Biomedical Co., Ltd. (Fuji, Shizuoka Prefecture, Japan). Breast cancer resistance protein-overexpressed vesicles (sf9-BCRP vesicle) were purchased from GenoMembrane Co., Ltd. (Yokohama, Kanagawa, Japan).
Substrates uptake assay. In this assay, we studied the inhibition of PDQ against transporters OAT1, OAT3, OCT2, OATP1B1 and OATP1B3 with MDCKII-OAT1, S2-OAT3, S2-OCT2, HEK293A-OATP1B1and HEK293A-OATP1B3 cells, respectively. The radiolabeled substrates for OAT1, OAT3, OATP1B1, OATP1B3 and OCT2 were […], respectively (Table 5). Probenecid ([…]) was the positive control inhibitor of OAT1 and OAT3, while rifampicin ([…]) served as the control drug of OATP1B1 and OATP1B3. For OCT2, we used […] cimetidine to compare with the inhibitory effect of PDQ. Two times (2×) more concentrated working solutions of the drugs and the substrate were prepared with Dulbecco’s phosphate-buffered saline (DPBS, Gibco, Grand Island, NY, USA.). Then, an equal volume of 2× drug solution and 2× radiolabeled substrate solution were mixed as the working mix. All reagents were pre-warmed to 37 °C.
The cells were digested with 0.05% trypsin/EDTA. The density of the single-cell suspension was adjusted to 2.0 × 10^5 cells/mL for S2 cells and to 1.5 × 10^5 cells/mL for MDCK II and HEK293A cells. The cell suspension was then added to the reservoirs of the 24-well plate for culture until full confluency. The medium in the wells was removed, and the wells were washed with DPBS. Then, the plate was incubated for 10 min with pre-warmed DPBS in the wells. After removing DPBS, […] of working mix was added to each well to initiate the substrate uptake process. The reaction time was 5 min for S2-OCT2 cells, while the other four types of cells were incubated with the reaction mix for 2 min. Cold DPBS was used to terminate the substrate transportation. To each well, […] NaOH ([…]) was added to lyse the cells. Then, […] cell lysate was transferred to the counting vials, and 3 mL scintillation cocktail (Aquasol-2, PerkinElmer, Waltham, MA, USA) was added. […] Each sample was replicated three times (N = 3).
In = [100 × (U − U0)/(Uc − U0)]%(3)
The results were expressed as mean ± standard deviation (SD) and analyzed with GraphPad Prism 8.0 software (CA, USA). The IC50 of PDQ was curve-fitted with the FORECAST function. Statistical significance was calculated using a two-tailed test, and a p value < 0.05 was considered as significant.

Compound: CC(C)(O)[C@@H]1CC[C@@](C)([C@H]2CC[C@]3(C)[C@@H]2[C@H](O)C[C@@H]2[C@@]4(C)CC[C@H](O)C(C)(C)[C@@H]4CC[C@]23C)O1 [PDQ, (20S,24S)-dammar-20,24-epoxy-3β, 12β, 25-triol]
- IC50 (HEK293A-OATP1B3, 3H-EG 1 µM, 2 min): > 30 µM
- DPM (3H-EG uptake by OATP1B3) (inhibitor 0.1 μM): 3332.7±245.2 DPM
- DPM (3H-EG uptake by OATP1B3) (inhibitor 0.3 μM): 3200.3±323.1 DPM
- DPM (3H-EG uptake by OATP1B3) (inhibitor 1 μM): 3093.3±182.0 DPM
- DPM (3H-EG uptake by OATP1B3) (inhibitor 3 μM): 2980.7±186.5 DPM
- DPM (3H-EG uptake by OATP1B3) (inhibitor 10 μM): 2985.0±250.2 DPM
- DPM (3H-EG uptake by OATP1B3) (inhibitor 30 μM): 2649.0±200.2 DPM
